Laboratory results: US20260355225A1 (priority 2022, published 2026)

System: SARS-CoV-2
Test: Antiviral assay, inhibition of virus-induced cytopathic effect (CPE) of SARS-CoV-2 by MTT assay (Example 1)
Conditions: Severe acute respiratory syndrome coronavirus 2, Vero C1008, SARS-CoV-2, Vero E6 (CPE & MTT)

Work on O=C[C@H](O)[C@@H](O)[C@H](O)CO [D-xylose] yielded an IC50 (administration at the same time as the virus) of 26.2 mM and an IC50 (preincubation with cells 6 h before infection) of 95.5 mM.
